The record followed here is publication PMC10906223 (JCI Insight, 2024).

The assay relates to diabetic NOD mice. Nature of the assay: Plasma glutamine in NOD mice. Format: in vivo, mouse. As to conditions: WCDD301 group of NOD mice; quantity not given. As for the experimental part: Terminal blood was collected into microfuge tubes containing K2-EDTA (supplemented by 45 mM phenylmethylsulphonyl fluoride and 0.77 μM aprotinin) through cardiac puncture. Plasma was separated by centrifugation (2,000g for 10 minutes at 4°C) and kept at –80°C until analysis. Plasma samples with hemolysis were excluded from the study. […] Values of BUN, creatinine, ALB, ALT, and AST were determined by a Roche Cobas C501 Autoanalyzer as performed by the Washington University Diabetes Research Center Translational Diagnostics Core. Reference intervals of blood chemistry parameters for inbred NOD mice were extracted from the Mouse Phenome Database (https://phenome.jax.org/).

Several values for one entry are separate records, joined by “and”; a condition that tells them apart may be missing. Identical values can stand only once.

Regarding `CC(=O)OCC(N)(COC(C)=O)COC(C)=O` [WCDD301, 2-(acetoxymethyl)-2-aminopropane-1,3-diyl diacetate], the “Plasma glutamine (Figure 7B)” value is 0.7 and 0.74 and 0.65 and 0.71.
